Measured values from BindingDB's records for PubMed 34043359 (China Pharmaceutical University, 2021).

Biological target: Signal transducer and activator of transcription 3 (Homo sapiens, UniProt P40763)
Assay: Binding affinity to recombinant GST tagged STAT3 (unknown origin) assessed as dissociation constant

Signal transducer and activator of transcription 3, sequence (P40763 whole entry): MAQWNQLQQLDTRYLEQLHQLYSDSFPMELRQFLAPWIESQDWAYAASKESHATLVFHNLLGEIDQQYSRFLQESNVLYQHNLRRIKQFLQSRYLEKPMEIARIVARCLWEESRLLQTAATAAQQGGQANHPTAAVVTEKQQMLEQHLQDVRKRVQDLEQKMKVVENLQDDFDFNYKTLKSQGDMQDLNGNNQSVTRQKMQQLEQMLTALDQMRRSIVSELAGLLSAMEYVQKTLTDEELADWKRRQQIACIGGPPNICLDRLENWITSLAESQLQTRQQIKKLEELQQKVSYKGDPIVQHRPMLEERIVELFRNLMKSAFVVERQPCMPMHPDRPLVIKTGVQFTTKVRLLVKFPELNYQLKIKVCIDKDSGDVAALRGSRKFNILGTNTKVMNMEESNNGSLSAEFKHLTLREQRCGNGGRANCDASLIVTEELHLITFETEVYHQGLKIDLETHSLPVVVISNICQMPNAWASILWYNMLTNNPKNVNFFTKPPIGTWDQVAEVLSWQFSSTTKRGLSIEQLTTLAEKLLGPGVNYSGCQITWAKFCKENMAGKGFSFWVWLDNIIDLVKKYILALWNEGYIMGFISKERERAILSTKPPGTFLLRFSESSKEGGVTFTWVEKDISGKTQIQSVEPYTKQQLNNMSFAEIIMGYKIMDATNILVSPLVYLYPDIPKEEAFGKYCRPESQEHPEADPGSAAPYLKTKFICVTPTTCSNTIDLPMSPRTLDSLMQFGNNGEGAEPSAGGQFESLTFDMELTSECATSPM

Q: `COc1cc(/C=C/c2ccc(OCCCCCCC(=O)NO)cc2)cc(OC)c1` was tested. Which koff did it give?
A: The koff was 0.0152 s⁻¹.
